Source: patent US20240174657A1, “SELECTIVE ANGIOTENSIN II RECEPTOR LIGANDS” (priority 2021, published 2024)

Tests used:
CYP1A = biological target: T1, CYP1A (Homo sapiens, UniProt P05177); assay: CYP inhibition in human liver microsomes, phenacetin substrate; format: in vitro ADME; conditions: probe phenacetin, read-out: CYP1A Inh %
T1 construct: using isoform-specific substrates incubated with human liver microsomes; tissue Eurofins protocol ITEMG232; host or cells: human liver microsomes

CYP2C8 = biological target: T2, CYP2C8 (Homo sapiens, UniProt P10632); assay: CYP inhibition in human liver microsomes, paclitaxel and amodiaquine substrates; format: in vitro ADME; conditions: probe paclitaxel and amodiaquine, read-out: CYP2C8 Inh %
T2 construct: using isoform-specific substrates incubated with human liver microsomes; tissue Eurofins protocol ITEMG232; host or cells: human liver microsomes
T2 sequence (P10632 1-490): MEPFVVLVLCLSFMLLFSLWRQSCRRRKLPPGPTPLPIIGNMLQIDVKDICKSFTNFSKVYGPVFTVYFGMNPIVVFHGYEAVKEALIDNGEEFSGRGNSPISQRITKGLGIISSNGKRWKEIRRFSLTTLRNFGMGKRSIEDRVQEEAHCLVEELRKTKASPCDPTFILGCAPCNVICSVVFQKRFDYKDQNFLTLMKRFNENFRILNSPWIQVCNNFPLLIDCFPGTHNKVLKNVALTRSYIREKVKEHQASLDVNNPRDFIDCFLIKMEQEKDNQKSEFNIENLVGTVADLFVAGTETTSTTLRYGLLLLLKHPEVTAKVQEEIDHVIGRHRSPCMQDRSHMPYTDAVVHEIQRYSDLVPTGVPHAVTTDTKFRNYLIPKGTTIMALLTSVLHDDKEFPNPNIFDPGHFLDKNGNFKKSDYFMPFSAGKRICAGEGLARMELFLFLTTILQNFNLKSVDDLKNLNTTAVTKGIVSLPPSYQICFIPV

[1] = biological target: T3, human recombinant AT1 receptor (Homo sapiens, UniProt P30556); assay: Binding to AT1 receptor, radiometric scintillation assay (Eurofins ITEM24)
T3 construct: Eurofins protocol ITEM24
T3 sequence (P30556 1-359): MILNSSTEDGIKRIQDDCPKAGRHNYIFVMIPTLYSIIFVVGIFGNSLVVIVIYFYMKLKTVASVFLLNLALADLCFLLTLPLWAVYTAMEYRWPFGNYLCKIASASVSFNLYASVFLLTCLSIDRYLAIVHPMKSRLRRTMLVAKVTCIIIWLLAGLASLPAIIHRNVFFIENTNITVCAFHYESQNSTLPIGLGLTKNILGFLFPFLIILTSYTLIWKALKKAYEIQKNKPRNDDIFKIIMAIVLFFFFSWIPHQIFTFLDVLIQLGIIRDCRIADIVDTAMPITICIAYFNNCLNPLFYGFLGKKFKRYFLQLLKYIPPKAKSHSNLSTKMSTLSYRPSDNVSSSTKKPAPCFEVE

[2] = Metabolic stability in pooled human liver microsomes; format: in vitro ADME; conditions: human liver microsomes 0.5 mg/mL, 1 uM test compound, 37° C.; for T1/2, + NaDPH: with 1 mM NADPH; for half-life at 1 uM: pooled human liver microsomes, without NADPH, read-out: T1/2, no NaDPH
Experimental: Pooled human liver microsomes in PBS at a concentration of 0.5 mg/mL was incubated with or without 1 mM NADPH for 70 min at 37° C. Test compound was added after 10 minutes to a final concentration of 1 uM. Samples were withdrawn at 0, 5, 15 and 60 minutes and added to test tubes containing acetonitrile, to stop the reaction, and with terfenadine, used as internal standard. After centrifugation at 10 000×g for 5 minutes the supernatant was diluted 1:1 with 1% formic acid. Samples were separated on a reverse phase column and detected by triple quadrupole MSMS (Agilant model 6540). The concentration of the parent compound at the different time points was measured with an external standard curve using terfenadine as internal standard and the initial metabolic rate in the presence or absence of NADPH calculated.

[3] = biological target: T4, human recombinant AT2 receptor (Homo sapiens, UniProt P50052); assay: biochemical; format: binding; conditions: ligand 125I CGP 42112A; for IC50: test concentrations 1, 10, 100 and 1000 nM, C21* = mean of runs, read-out: AT2 GraFit IC50
T4 sequence (P50052 1-363): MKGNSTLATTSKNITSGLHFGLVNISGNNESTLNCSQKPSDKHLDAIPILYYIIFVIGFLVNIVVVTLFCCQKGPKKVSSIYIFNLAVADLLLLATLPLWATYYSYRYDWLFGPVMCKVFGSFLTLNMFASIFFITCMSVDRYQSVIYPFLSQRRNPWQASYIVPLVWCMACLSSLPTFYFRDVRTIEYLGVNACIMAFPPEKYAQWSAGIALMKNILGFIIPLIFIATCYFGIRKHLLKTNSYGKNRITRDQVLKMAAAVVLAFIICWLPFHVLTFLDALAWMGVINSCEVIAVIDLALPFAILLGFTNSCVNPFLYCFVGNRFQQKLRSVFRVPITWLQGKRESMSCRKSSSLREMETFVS

CYP2D6 = biological target: T5, CYP2D6 (Homo sapiens, UniProt P10635); assay: CYP inhibition in human liver microsomes, dextromethorphan substrate; format: in vitro ADME; conditions: probe dextromethorphan, read-out: CYP2D6 Inh %
T5 construct: tissue Eurofins protocol ITEMG232; host or cells: human liver microsomes

CYP3A4 = biological target: T6, CYP3A4 (Homo sapiens, UniProt P08684); assay: CYP inhibition in human liver microsomes, midazolam substrate; format: in vitro ADME; conditions: probe midazolam, read-out: CYP3A4 midazolam Inh %
T6 construct: using isoform-specific substrates incubated with human liver microsomes; tissue Eurofins protocol ITEMG232; host or cells: human liver microsomes

CYP2C19 = biological target: T7, CYP2C19 (Homo sapiens, UniProt P33261); assay: CYP inhibition in human liver microsomes, omeprazole substrate; format: in vitro ADME; conditions: probe omeprazole, read-out: CYP2C19 Inh %
T7 construct: using isoform-specific substrates incubated with human liver microsomes; tissue Eurofins protocol ITEMG232; host or cells: human liver microsomes

CYP2C9 = biological target: T8, CYP2C9 (Homo sapiens, UniProt P11712); assay: CYP inhibition in human liver microsomes, diclofenac substrate; format: in vitro ADME; conditions: probe diclofenac, read-out: CYP2C9 Inh %
T8 construct: using isoform-specific substrates incubated with human liver microsomes; tissue Eurofins protocol ITEMG232; host or cells: human liver microsomes

CYP3A4&5 = assay: CYP inhibition in human liver microsomes, testosterone substrate; format: in vitro ADME; conditions: probe testosterone, read-out: CYP3A4&5 testosterone Inh %
CYP2B6 = biological target: T9, CYP2B6 (Homo sapiens, UniProt P20813); assay: CYP inhibition in human liver microsomes, bupropion substrate; format: in vitro ADME; conditions: probe bupropion, read-out: CYP2B6 Inh %
T9 construct: using isoform-specific substrates incubated with human liver microsomes; tissue Eurofins protocol ITEMG232; host or cells: human liver microsomes
T9 sequence (P20813 1-491): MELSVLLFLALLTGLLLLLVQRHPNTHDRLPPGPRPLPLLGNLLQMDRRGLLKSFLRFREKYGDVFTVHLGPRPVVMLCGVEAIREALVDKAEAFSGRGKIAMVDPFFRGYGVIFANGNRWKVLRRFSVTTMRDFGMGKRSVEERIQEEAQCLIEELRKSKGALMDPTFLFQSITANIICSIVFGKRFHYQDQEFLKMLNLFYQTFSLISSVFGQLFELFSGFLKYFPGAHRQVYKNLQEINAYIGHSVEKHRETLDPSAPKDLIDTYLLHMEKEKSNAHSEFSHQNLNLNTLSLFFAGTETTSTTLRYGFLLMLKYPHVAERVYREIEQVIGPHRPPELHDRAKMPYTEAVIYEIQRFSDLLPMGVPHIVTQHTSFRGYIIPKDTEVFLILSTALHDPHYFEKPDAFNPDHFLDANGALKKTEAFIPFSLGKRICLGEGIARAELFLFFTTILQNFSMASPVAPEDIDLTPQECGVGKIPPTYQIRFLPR

T6 sequence (P08684 whole entry, canonical isoform): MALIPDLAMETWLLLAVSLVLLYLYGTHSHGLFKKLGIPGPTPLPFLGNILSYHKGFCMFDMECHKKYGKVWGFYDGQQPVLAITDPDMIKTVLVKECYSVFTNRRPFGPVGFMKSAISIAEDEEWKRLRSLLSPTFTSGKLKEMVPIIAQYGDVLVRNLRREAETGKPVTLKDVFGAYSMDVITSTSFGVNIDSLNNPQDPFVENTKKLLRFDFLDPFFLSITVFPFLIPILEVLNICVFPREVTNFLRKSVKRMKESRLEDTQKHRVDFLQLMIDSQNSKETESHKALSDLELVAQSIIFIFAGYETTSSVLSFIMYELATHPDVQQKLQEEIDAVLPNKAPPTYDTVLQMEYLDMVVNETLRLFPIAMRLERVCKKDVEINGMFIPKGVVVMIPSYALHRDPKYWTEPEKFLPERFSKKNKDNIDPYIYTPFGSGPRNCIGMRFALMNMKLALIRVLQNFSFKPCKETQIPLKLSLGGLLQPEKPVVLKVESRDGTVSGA
T5 sequence (P10635 whole entry): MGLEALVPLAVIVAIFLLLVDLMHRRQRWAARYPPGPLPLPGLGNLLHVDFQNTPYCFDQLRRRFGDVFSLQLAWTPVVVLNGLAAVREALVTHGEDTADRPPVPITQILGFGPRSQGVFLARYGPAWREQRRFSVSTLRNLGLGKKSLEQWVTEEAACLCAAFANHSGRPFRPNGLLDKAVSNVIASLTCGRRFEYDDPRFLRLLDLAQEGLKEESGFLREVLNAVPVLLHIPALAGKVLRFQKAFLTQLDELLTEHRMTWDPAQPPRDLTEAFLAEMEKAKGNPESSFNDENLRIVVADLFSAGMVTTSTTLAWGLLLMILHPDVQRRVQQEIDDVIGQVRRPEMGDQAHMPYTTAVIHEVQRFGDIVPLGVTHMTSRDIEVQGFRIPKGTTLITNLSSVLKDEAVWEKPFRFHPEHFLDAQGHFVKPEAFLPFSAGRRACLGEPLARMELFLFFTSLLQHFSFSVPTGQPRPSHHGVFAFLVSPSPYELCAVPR
T1 sequence (P05177 whole entry, canonical isoform): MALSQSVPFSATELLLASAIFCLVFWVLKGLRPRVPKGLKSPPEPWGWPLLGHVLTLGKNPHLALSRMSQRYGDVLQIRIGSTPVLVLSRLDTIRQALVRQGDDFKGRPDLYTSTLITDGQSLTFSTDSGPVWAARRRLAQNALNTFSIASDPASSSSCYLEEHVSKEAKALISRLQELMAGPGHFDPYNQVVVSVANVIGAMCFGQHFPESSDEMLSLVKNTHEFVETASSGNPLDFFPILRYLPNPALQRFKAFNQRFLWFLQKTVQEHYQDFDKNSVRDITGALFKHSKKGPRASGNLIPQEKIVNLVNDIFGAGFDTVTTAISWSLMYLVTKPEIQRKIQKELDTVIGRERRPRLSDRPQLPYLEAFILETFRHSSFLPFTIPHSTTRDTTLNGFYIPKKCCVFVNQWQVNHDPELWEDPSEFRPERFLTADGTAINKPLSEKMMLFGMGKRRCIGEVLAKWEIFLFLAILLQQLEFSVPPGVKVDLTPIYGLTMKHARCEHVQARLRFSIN
T7 sequence (P33261 whole entry, canonical isoform): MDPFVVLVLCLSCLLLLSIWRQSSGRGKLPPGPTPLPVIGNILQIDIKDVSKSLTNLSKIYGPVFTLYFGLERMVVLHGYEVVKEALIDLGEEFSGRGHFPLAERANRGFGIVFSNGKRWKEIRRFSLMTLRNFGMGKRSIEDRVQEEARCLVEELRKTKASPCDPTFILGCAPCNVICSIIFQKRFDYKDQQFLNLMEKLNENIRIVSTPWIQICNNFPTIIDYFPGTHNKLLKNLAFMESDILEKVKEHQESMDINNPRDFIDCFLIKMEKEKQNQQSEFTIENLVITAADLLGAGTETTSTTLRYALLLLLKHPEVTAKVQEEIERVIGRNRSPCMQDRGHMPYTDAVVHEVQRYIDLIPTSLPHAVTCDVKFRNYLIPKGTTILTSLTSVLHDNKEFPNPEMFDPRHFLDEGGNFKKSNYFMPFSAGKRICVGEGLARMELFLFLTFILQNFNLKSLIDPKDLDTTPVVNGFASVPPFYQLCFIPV
T8 sequence (P11712 whole entry, canonical isoform): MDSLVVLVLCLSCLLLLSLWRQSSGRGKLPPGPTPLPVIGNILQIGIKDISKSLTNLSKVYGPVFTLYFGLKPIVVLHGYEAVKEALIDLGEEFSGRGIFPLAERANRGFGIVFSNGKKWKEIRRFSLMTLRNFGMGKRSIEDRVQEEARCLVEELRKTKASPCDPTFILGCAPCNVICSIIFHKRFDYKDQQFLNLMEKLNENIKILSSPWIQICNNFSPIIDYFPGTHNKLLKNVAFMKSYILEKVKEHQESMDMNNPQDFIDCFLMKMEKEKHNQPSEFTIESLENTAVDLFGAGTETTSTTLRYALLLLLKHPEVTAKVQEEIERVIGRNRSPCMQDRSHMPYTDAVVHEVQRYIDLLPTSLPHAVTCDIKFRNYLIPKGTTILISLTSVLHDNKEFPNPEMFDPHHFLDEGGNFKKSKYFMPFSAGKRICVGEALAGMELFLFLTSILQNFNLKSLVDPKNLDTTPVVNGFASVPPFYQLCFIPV

inhibition at 10 µM (CYP1A)	inhibition at 10 µM (CYP2C8)	IC50 [1]	T1/2, + NaDPH [2]	half-life at 1 uM [2]	IC50 [3]	inhibition at 10 µM (CYP2D6)	inhibition at 10 µM (CYP3A4)	inhibition at 10 µM (CYP2C19)	inhibition at 10 µM (CYP2C9)	inhibition at 10 µM (CYP3A4&5)	inhibition at 10 µM (CYP2B6)	Ki ([3]; seven-point dose-response curve, read-out: AT2R Ki)	Structure (SMILES)
-26.3%	35.2%	24000 nM	>1 h	> 1 h	5 nM	5.3%	7.2%	6.5%	5.5%	12.4%	6.2%	–	Cc1nccn1Cc1ccc(-c2cc(CC(C)C)sc2S(=O)(=O)NC(=O)NCCO)cc1F [Example 1, 1-[[3-[3-Fluoro-4-[(2-methylimidazol-1-yl)methyl]phenyl]-5-isobutyl-2-thienyl]sulfonyl]-3-(2-hydroxyethyl)urea]
-0.9%	30.9%	21000 nM	>1 h	> 1 h	20 nM	13.6%	25.3%	26.3%	16.5%	18.4%	3.1%	–	Cc1nccn1Cc1ccc(-c2cc(CC(C)C)sc2S(=O)(=O)NC(=O)NCCCO)cc1F [Example 2, 1-[[3-[3-Fluoro-4-[(2-methylimidazol-1-yl)methyl]phenyl]-5-isobutyl-2-thienyl]sulfonyl]-3-(3-hydroxypropyl)urea]
15.5%	28%	23000 nM	>1 h	> 1 h	5.4 nM	38%	52.8%	21.2%	31.8%	29.7%	22.6%	–	Cc1nccn1Cc1ccc(-c2cc(CC(C)C)sc2S(=O)(=O)NC(=O)NCC(C)(C)O)cc1F [Example 3, 1-[[3-[3-Fluoro-4-[(2-methylimidazol-1-yl)methyl]phenyl]-5-isobutyl-2-thienyl]sulfonyl]-3-(2-hydroxy-2-methyl-propyl)urea]
-9.7%	10.4%	34000 nM	–	–	45.5 nM	7.6%	24.5%	29.6%	11.9%	18.9%	3.2%	–	Cc1nccn1Cc1ccc(-c2cc(CC(C)C)sc2S(=O)(=O)NC(=O)NCCO)c(F)c1 [Example 4, 1-[[3-[2-Fluoro-4-[(2-methylimidazol-1-yl)methyl]phenyl]-5-isobutyl-2-thienyl]sulfonyl]-3-(2-hydroxyethyl)urea]
8%	36.2%	49000 nM	>1 h	> 1 h	18.4 nM	36.3%	44.6%	-30.1%	38%	27.5%	27.4%	–	Cc1nccn1Cc1c(F)cc(-c2cc(CC(C)C)sc2S(=O)(=O)NC(=O)NCCO)cc1F [Example 5, 1-[[3-[3,5-Difluoro-4-[(2-methylimidazol-1-yl)methyl]phenyl]-5-isobutyl-2-thienyl]sulfonyl]-3-(2-hydroxyethyl)urea]
3.5%	73.8%	2100 nM	>1 h	> 1 h	0.64 nM	10.1%	13%	14.7%	11.5%	4.5%	8.2%	–	CC(C)Cc1cc(-c2ccc(Cn3ccnc3C(C)(C)C)c(F)c2)c(S(=O)(=O)NC(=O)NCCO)s1 [Example 6, 1-[[3-[4-[(2-tert-Butylimidazol-1-yl)methyl]-3-fluoro-phenyl]-5-isobutyl-2-thienyl]sulfonyl]-3-(2-hydroxyethyl)urea]
2.7%	69.8%	1900 nM	>1 h	> 1 h	0.95 nM	3.9%	7.7%	27.4%	9.9%	2.8%	17.4%	–	CC(C)Cc1cc(-c2ccc(Cn3ccnc3C(C)(C)C)c(F)c2)c(S(=O)(=O)NC(=O)NCC(C)(C)O)s1 [Example 7, 1-[[3-[4-[(2-tert-Butylimidazol-1-yl)methyl]-3-fluoro-phenyl]-5-isobutyl-2-thienyl]sulfonyl]-3-(2-hydroxy-2-methyl-propyl)urea]
11.8%	2.3%	9500 nM	>1 h	> 1 h	2.5 nM	8%	23.7%	17.7%	26.8%	22.3%	14%	–	CCc1nccn1Cc1ccc(-c2cc(CC(C)C)sc2S(=O)(=O)NC(=O)NCCO)cc1F [Example 8]
–	–	8400 nM	>1 h	> 1 h	1.9 nM	–	–	–	–	–	–	0.95 nM	CC(C)Cc1cc(-c2ccc(Cn3ccnc3C(C)C)c(F)c2)c(S(=O)(=O)NC(=O)NCCO)s1 [Example 10, 1-[[3-[3-Fluoro-4-[(2-isopropylimidazol-1-yl)methyl]phenyl]-5-isobutyl-2-thienyl]sulfonyl]-3-(2-hydroxyethyl)urea]
